The values below come from publication PMC12749626, “Expediting hit-to-lead progression in drug discovery through reaction prediction and multi-dimensional optimization” (Nature Communications, 2025).

Converted amounts (≈) assume the structure as drawn. A value given as a limit tells only on which side of the number the result lay.

One may read the solubility as the dissolved amount per volume that the medium holds. In general, microsomal CLint refers to the capacity of the preparation to metabolise the compound, expressed as a volume cleared per time. One may read the hepatocyte CLint as a measure of how fast metabolising enzymes remove a compound, apart from limits set by blood flow. Higher therefore signals faster metabolism. A word on the Papp: it is the rate of passage across a membrane or cell layer, normalised by area and donor concentration. A high value points to ready permeation. As a reminder, the Papp A→B is the apparent permeability from the apical to the basolateral side of a cell layer.

One data set in a line: Solubility in 0.05M PO4-. Format: physicochemical. The settings on record: for solubility: 0.05 M phosphate buffer, aqueous buffer.
Another data set concerns the target CYP3A4 (Homo sapiens, UniProt P08684). Description: Cytochrome P450 inhibition assay, CYP3A4. The settings on record: liver microsomes.
A short description of data set [1]: Microsomal clearance, human microsomes.
Another data set deals with CYP2C9 (Homo sapiens, UniProt P11712). The data set can be described thus: Cytochrome P450 inhibition assay, CYP2C9. Particulars: liver microsomes. For orientation: Liver microsomes are vesicles of endoplasmic reticulum, rich in cytochrome P450 enzymes.
CYP2C9, sequence (P11712 whole entry): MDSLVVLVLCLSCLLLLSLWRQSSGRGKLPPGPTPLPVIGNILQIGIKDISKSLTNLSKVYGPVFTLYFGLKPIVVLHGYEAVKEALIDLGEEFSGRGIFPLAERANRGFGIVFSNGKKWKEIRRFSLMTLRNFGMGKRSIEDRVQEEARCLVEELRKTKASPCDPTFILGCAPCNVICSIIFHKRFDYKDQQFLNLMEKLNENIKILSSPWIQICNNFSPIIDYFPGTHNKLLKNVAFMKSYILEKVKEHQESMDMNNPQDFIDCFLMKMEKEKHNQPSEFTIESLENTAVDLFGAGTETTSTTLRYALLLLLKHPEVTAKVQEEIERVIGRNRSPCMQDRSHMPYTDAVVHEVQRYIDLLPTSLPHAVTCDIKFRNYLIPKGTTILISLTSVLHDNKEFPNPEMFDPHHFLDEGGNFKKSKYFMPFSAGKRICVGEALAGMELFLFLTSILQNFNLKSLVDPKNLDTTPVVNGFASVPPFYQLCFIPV
A further data set has as its target CYP2D6 (Homo sapiens, UniProt P10635). The data set can be described thus: Cytochrome P450 inhibition assay, CYP2D6. The settings on record: liver microsomes.
Data set [2] can be described thus: Microsomal clearance, mouse microsomes.
A short description of another data set: Hepatocyte clearance. The settings on record: for hepatocyte CLint at 1 µM: human, primary pooled cryopreserved hepatocytes in suspension.
A further data set deals with T1, human MAGL (Homo sapiens, UniProt Q99685).
T1 sequence (Q99685 1-303): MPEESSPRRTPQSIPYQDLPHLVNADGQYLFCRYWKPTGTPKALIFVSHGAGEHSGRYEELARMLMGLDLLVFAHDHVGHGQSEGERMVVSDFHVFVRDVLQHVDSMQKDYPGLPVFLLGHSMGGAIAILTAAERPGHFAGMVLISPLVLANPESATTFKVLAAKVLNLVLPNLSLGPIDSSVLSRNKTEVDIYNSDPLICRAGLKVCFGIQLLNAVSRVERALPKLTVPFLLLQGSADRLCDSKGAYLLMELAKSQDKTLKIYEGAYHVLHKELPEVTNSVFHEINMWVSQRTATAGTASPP
The settings on record: = pIC50 - cLogP.

Data set [3] can be described thus: Parallel Artificial Membrane Permeability (PAMPA). The settings on record: for Papp at 18 h, 150 µM: PAMPA, pH 6; for PAMPA permeability: donor buffer pH 6.0, 18-hour incubation. On the technique in general: In PAMPA a lipid-coated filter parts donor from acceptor wells.
In another data set the target is ABCB1 (MDR1, human P-gp) (Homo sapiens, UniProt P08183). The data set can be described thus: P-glycoprotein (P-gp) assay in LLC-PK1 cells transfected with ABCB1. The settings on record: human, LLC-PK1.
ABCB1 (MDR1, human P-gp), sequence (P08183 whole entry): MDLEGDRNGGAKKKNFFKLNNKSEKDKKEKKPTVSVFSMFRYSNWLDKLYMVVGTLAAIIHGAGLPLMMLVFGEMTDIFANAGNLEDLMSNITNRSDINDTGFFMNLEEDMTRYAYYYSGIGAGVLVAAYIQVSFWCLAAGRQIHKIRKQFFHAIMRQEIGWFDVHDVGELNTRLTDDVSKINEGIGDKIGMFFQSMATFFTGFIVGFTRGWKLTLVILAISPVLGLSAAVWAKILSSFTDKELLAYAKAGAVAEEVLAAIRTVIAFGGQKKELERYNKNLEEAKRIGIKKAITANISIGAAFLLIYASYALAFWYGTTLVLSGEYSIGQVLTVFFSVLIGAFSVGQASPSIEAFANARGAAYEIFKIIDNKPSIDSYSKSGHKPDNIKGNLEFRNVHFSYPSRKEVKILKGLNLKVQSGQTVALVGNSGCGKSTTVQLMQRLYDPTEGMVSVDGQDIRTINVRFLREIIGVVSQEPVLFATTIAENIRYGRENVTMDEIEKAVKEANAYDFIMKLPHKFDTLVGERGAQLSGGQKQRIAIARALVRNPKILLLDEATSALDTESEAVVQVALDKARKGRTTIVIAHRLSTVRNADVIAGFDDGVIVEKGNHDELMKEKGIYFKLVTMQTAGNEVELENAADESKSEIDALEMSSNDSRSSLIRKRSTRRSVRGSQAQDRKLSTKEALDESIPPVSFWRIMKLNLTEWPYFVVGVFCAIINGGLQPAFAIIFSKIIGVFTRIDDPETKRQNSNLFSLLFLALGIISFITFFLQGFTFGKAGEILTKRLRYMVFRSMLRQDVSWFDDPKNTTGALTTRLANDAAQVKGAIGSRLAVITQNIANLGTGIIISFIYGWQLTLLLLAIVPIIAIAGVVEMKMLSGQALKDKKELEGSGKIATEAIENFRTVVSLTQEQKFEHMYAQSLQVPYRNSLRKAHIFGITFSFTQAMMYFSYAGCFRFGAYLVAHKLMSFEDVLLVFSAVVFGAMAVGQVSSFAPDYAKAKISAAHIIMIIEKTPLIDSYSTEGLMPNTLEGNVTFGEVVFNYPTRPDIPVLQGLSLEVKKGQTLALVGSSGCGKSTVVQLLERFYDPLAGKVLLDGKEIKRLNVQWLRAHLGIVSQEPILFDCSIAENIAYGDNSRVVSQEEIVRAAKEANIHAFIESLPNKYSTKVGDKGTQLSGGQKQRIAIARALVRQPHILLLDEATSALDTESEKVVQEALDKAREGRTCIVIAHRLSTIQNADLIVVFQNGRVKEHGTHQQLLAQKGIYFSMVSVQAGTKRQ
The nature of the next data set: Solubility in FESSIF. Format: physicochemical.

CYP3A4, sequence (P08684 whole entry): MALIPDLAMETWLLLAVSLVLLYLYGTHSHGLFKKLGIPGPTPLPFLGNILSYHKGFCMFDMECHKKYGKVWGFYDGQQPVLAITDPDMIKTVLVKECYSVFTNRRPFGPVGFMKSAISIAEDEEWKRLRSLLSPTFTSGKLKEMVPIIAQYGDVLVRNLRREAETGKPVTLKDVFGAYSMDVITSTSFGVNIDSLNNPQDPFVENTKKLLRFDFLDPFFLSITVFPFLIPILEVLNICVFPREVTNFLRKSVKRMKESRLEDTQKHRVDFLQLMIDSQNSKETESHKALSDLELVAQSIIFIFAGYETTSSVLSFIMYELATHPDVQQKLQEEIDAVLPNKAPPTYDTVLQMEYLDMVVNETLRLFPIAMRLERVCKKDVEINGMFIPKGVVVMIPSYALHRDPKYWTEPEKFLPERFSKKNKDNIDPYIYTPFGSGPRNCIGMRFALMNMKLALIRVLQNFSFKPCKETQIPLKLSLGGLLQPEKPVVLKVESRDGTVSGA
CYP2D6, sequence (P10635 whole entry): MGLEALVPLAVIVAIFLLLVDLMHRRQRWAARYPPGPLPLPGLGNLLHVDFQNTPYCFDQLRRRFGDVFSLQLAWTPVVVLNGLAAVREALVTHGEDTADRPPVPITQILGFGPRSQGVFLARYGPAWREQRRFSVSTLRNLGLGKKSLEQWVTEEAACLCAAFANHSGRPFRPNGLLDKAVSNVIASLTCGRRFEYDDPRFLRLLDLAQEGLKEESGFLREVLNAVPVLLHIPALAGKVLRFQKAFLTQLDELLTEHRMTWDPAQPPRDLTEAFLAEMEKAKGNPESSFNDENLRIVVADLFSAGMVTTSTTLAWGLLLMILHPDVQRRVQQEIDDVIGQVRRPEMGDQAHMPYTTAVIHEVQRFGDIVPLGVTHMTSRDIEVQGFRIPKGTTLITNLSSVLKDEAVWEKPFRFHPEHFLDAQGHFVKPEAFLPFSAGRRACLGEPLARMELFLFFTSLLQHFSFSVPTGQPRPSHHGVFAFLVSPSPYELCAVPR

On to `O=C(c1ccc2nc(-c3cnccc3C3CCCC3)oc2c1)N1CCN(c2nc3ccccc3c(=O)[nH]2)CC1` [Compound 18], for which, in “Solubility in 0.05M PO4-”, the solubility was less than 0.05 µg/mL. The “CYP3A4 Inhibition” value at CYP3A4 was more than 90%. The compound also showed a microsomal CLint at 1 µM in data set [1] of 853 µL/min/mg. Further, the “CYP2C9 Inhibition” value at CYP2C9 came out at 62%. Besides, at CYP2D6, the “CYP2D6 Inhibition” value is given as 45%.

Regarding `O=C(c1ccc2nc(-c3cnc(C4CCCCC4)cc3C3CCCCC3)oc2c1)N1CCN(c2nc3ccccc3c(=O)[nH]2)CC1` [Compound 19], the solubility in “Solubility in 0.05M PO4-” was less than 1.1 µg/mL. For the same compound, the “CYP3A4 Inhibition” value at CYP3A4 is 44%. In addition, the microsomal CLint at 1 µM was found to be 17 µL/min/mg in data set [1] and 47 µL/min/mg in [2]. Moreover, the “CYP2C9 Inhibition” value on CYP2C9 worked out at 49%. The “CYP2D6 Inhibition” value at CYP2D6 is 23%. The hepatocyte CLint at 1 µM in “Hepatocyte clearance” came to 4.6 µL/min/1e6 cells.

Take `O=C(c1ccc2nc(-c3ccc(C4(C5CCC5)CC4)nc3)oc2c1)N1CCN(c2nc3ccccc3c(=O)[nH]2)CC1` [Compound 20]: the “Solubility in 0.05M PO4-” value in the data set “Solubility in 0.05M PO4-” is reported as less than 0.05 µg/mL. Moreover, the “CYP3A4 Inhibition” value on CYP3A4 is 49%. The “CYP2C9 Inhibition” value at CYP2C9 amounted to 24%. In addition, the “CYP2D6 Inhibition” value on CYP2D6 is listed as 16%. In addition, the “Lipophilic efficiency (LipE)” value at human MAGL is 2.84. The compound also yielded a Hepatocyte clearance in “Hepatocyte clearance” (cryopreserved hepatocytes of human origin, 1 µM compound) of 84.2 µL/min/10^6 cells.

For the compound `O=C(c1ccc2nc(-c3cccnc3C3CCCC3)oc2c1)N1CCN(c2nc3ccccc3c(=O)[nH]2)CC1` [Compound 21], in the data set “Solubility in 0.05M PO4-”, the solubility was less than 0.05 µg/mL. This compound also came in with a Papp at 18 h, 150 µM in data set [3] of 3.7 ×10⁻⁶ cm/s. On ABCB1 (MDR1, human P-gp), the Papp A→B was found to be 10 ×10⁻⁶ cm/s. Also, the “CYP3A4 Inhibition” value at CYP3A4 was 4%. For the same compound, the microsomal CLint at 1 µM was 53 µL/min/mg in data set [1] and 114 µL/min/mg in [2]. At CYP2C9, the “CYP2C9 Inhibition” value turned out to be 74%. In addition, the “CYP2D6 Inhibition” value on CYP2D6 came to 41%. For the same compound, the hepatocyte CLint at 1 µM in “Hepatocyte clearance” came to 47.7 µL/min/1e6 cells.

In “Solubility in 0.05M PO4-”, `O=C(c1ccc2nc(-c3ccc(C4CCCC4)nc3)oc2c1)N1CCN(c2nc3ccccc3c(=O)[nH]2)CC1` [Compound 22] had a solubility of less than 0.05 µg/mL. Also, the Papp at 18 h, 150 µM in data set [3] was determined as 2.7 ×10⁻⁶ cm/s. At ABCB1 (MDR1, human P-gp), the apparent permeability from apical to basolateral (Papp A→B) came out at 8.1 ×10⁻⁶ cm/s. In addition, at CYP3A4, the “CYP3A4 Inhibition” value is recorded as -59%. This compound also displayed a microsomal CLint at 1 µM in [1] of 142 µL/min/mg. Also, on CYP2C9, the “CYP2C9 Inhibition” value was determined as 23%. In addition, at CYP2D6, the “CYP2D6 Inhibition” value worked out at 62%. Further, the hepatocyte CLint at 1 µM in the data set “Hepatocyte clearance” is 104 µL/min/1e6 cells.

Regarding `O=C(c1ccc2nc(-c3cccnc3C3CCCC3)oc2c1)N1CCN(c2nc3nc(Cl)ccc3o2)CC1` [Compound 24], the solubility is less than 0.05 µg/mL in “Solubility in 0.05M PO4-” and 2.5 µg/mL (≈ 4.73 µM) in “Solubility in FESSIF”. Besides, the Papp at 18 h, 150 µM in [3] was determined as 8.5 ×10⁻⁶ cm/s. Moreover, the Papp A→B at ABCB1 (MDR1, human P-gp) was found to be 9.3 ×10⁻⁶ cm/s. Besides, the “CYP3A4 Inhibition” value at CYP3A4 amounted to 8%. The figures for the microsomal CLint at 1 µM in data set [1] and in [2] were 69 µL/min/mg and 61 µL/min/mg, respectively. Moreover, the “CYP2C9 Inhibition” value at CYP2C9 was 45%. For the same compound, the “CYP2D6 Inhibition” value on CYP2D6 is 26%. The hepatocyte CLint at 1 µM in the data set “Hepatocyte clearance” is 42.2 µL/min/1e6 cells.

Regarding `O=C(c1ccc2nc(-c3cnccc3C3CCNCC3)oc2c1)N1CCN(c2nc3nc(Cl)ccc3o2)CC1.O=CO` [Compound 25], the solubility in “Solubility in 0.05M PO4-” was 84 µg/mL. Moreover, in data set [3], the Papp at 18 h, 150 µM was found to be 0.02 ×10⁻⁶ cm/s. Moreover, the “CYP3A4 Inhibition” value on CYP3A4 is recorded as 70%. In addition, the microsomal CLint at 1 µM in data set [1] and in data set [2] was 10 µL/min/mg in each case. Besides, on CYP2C9, the “CYP2C9 Inhibition” value is -5%. Besides, the “CYP2D6 Inhibition” value at CYP2D6 was 34%. Further, in “Hepatocyte clearance”, the hepatocyte CLint at 1 µM turned out to be 1 µL/min/1e6 cells.

As for `O=C(c1ccc2nc(-c3cccnc3C3CCNCC3)oc2c1)N1CCN(c2nc3nc(Cl)ccc3o2)CC1.O=CO` [Compound 26], the “Solubility in 0.05M PO4-” value in the data set “Solubility in 0.05M PO4-” was more than 590 µg/mL. The PAMPA permeability in [3] is on record as 0.01 10^-6 cm/s. Further, at CYP3A4, the “CYP3A4 Inhibition” value came out at 12%. At CYP2C9, the “CYP2C9 Inhibition” value was -23%. The “CYP2D6 Inhibition” value on CYP2D6 came to 18%.

In the case of `O=C(c1ccc2nc(-c3cccnc3C3(C4CCC4)CC3)oc2c1)N1CCN(c2nc3nc(Cl)ccc3o2)CC1` [Compound 28], the PAMPA permeability in data set [3] is given as 5.8 10^-6 cm/s. The “Lipophilic efficiency (LipE)” value at human MAGL is listed as 2.31.

In “Solubility in 0.05M PO4-”, `O=C(c1ccc2nc(-c3ccc(C4CCCC4)nc3)oc2c1)N1CC2(CC(n3cnc(C4CC4)n3)C2)C1` [Compound 30] yielded a solubility of less than 0.05 µg/mL. This compound showed a Papp at 18 h, 150 µM in [3] of 4.4 ×10⁻⁶ cm/s. Moreover, on CYP3A4, the “CYP3A4 Inhibition” value is listed as -40%. Also, the microsomal CLint at 1 µM in [1] was found to be 563 µL/min/mg. Further, on CYP2C9, the “CYP2C9 Inhibition” value is -19%. In addition, the “CYP2D6 Inhibition” value at CYP2D6 was 3%. In addition, in the data set “Hepatocyte clearance”, the hepatocyte CLint at 1 µM is 187 µL/min/1e6 cells.

With `O=C(c1ccc2nc(-c3cnccc3C3CCCC3)oc2c1)N1CC(N2CCN(C(=O)c3nccs3)CC2)C1` [Compound 31], in [3], the Papp at 18 h, 150 µM stood at 12.1 ×10⁻⁶ cm/s. For the same compound, the cell permeability result in [3] (in words, SI2.2, Fig. S1 (PAMPA vs LipE)) is reported as “potent cell permeability”. Also, at CYP3A4, the “CYP3A4 Inhibition” value was more than 90%. In addition, the microsomal CLint at 1 µM in data set [1] amounted to 431 µL/min/mg. Further, at CYP2C9, the “CYP2C9 Inhibition” value came to 43%. Besides, on CYP2D6, the “CYP2D6 Inhibition” value is recorded as 22%. In addition, the hepatocyte CLint at 1 µM in the data set “Hepatocyte clearance” came out at 163 µL/min/1e6 cells.
